Results published in patent publication US7138361B2, “Herbicidal heterocycles” (E. I. du Pont de Nemours and Company, priority 2000, dated 2006).

Key:
Assay type in all cases: in vivo
[1] = test system: barnyardgrass (Echinochloa crus-galli); assay: Test C flooded paddy test; settings: for Barnyardgrass plant response rating: Flooded Paddy, scale 0 to 100, 0 no effect, 100 complete control; for Plant response rating, Barnyardgrass: flooded paddy test, scale 0 to 100 (0 no effect, 100 complete control)
Method in brief: (§1)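 Visually assessed vs untreated controls 12–14 d post-treatment (greenhouse). Flooded paddy plants were at the 2-leaf stage; scale 0 = no effect, 100 = complete control.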

[2] = test system: duck salad (Heteranthera limosa); assay: Test C flooded paddy test; settings: for Ducksalad plant response rating: Flooded Paddy, scale 0 to 100, 0 no effect, 100 complete control; for Plant response rating, Ducksalad: flooded paddy test, scale 0 to 100 (0 no effect, 100 complete control)
Method in brief: as §1

rice (Oryza saliva) [3] = assay: Test C flooded paddy test; settings: for Rice plant response rating: Flooded Paddy, scale 0 to 100, 0 no effect, 100 complete control; for Plant response rating, Rice: flooded paddy test, scale 0 to 100 (0 no effect, 100 complete control)
Method in brief: as §1

[4] = test system: smallflower flatsedge (Cyperus difformis); assay: Test C flooded paddy test; settings: for Flatsedge plant response rating: Flooded Paddy, scale 0 to 100, 0 no effect, 100 complete control; for Plant response rating, Flatsedge: flooded paddy test, scale 0 to 100 (0 no effect, 100 complete control)
Method in brief: as §1

[5] = test system: barnyardgrass (Echinochloa crus-galli); assay: Test B preemergence
Method in brief: (§2)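 Seeds were planted and sprayed preemergence with test chemical in a non-phytotoxic solvent mixture containing surfactant; postemergence plants (2 to 18 cm, 1- to 4-leaf stage) received the same formulation. Greenhouse hold 13 to 15 days, then visual rating versus untreated controls on a 0–100 scale (0 no effect, 100 complete control).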

[6] = test system: lambsquarters (Chenopodium album); assay: Test B preemergence
Method in brief: as §2

[7] = test system: morning glory (Ipomoea hederacea); assay: Test B preemergence; settings: preemergence; Rate 125 g/ha; scale of 0 to 100 where 0 is no effect and 100 is complete control; 13 to 15 days
Method in brief: as §2

[8] = test system: pigweed (Amaranthus retroflexus); assay: Test B preemergence
Method in brief: as §2

[9] = test system: cocklebur (Xanthium strumarium); assay: Test B preemergence
Method in brief: as §2

[10] = test system: Surinam grass (Brachiaria decumbens); assay: Test B preemergence
Method in brief: as §2

rice (Oryza saliva) [11] = assay: Test B preemergence
Method in brief: as §2

[12] = test system: velvetleaf (Abutilon theophrasti); assay: Test B preemergence
Method in brief: as §2

corn (Zea mays) [13] = assay: Test B preemergence
Method in brief: as §2

[14] = test system: giant foxtail (Setaria faberii); assay: Test B preemergence
Method in brief: as §2

[15] = test system: crabgrass (Digitaria sanguinalis); assay: Test B preemergence
Method in brief: as §2

[16] = test system: barnyardgrass (Echinochloa crus-galli); assay: Test B flooded paddy test; settings: Rate 1000 g/ha, scale of 0 to 100 where 0 is no effect and 100 is complete control, visually evaluated after 13 to 15 days
Protocol: (§3) At the same time, plants selected from these crop and weed species and also blackgrass (Alopecurus myosuroides), wheat (Triticum aestivum) and wild oat (Avena fatua) were treated with postemergence applications of test chemicals formulated in the same manner. Plants ranged in height from 2 to 18 cm (1- to 4-leaf stage) for postemergence treatments. Plant species in the flooded paddy test consisted of rice (Oryza saliva), smallflower flatsedge (Cyperus difformis), duck salad (Heteranthera limosa) and barnyardgrass (Echinochloa crus-galli) grown to the 2-leaf stage for testing. Treated plants and controls were maintained in a greenhouse for 13 to 15 days, after which time all species were compared to controls and visually evaluated. Plant response ratings, summarized in Table B, are based on a scale of 0 to 100 where 0 is no effect and 100 is complete control. A dash (-) response means no test result.

[17] = test system: duck salad (Heteranthera limosa); assay: Test B flooded paddy test; settings: Rate 1000 g/ha, scale of 0 to 100 where 0 is no effect and 100 is complete control, visually evaluated after 13 to 15 days
Protocol: as §3

rice (Oryza saliva) [18] = assay: Test B flooded paddy test; settings: Rate 1000 g/ha, scale of 0 to 100 where 0 is no effect and 100 is complete control, visually evaluated after 13 to 15 days
Protocol: as §3

[19] = test system: barnyardgrass (Echinochloa crus-galli); assay: Test B postemergence; settings: 13 to 15 days
Method in brief: as §2

[20] = test system: lambsquarters (Chenopodium album); assay: Test B postemergence; settings: 13 to 15 days
Method in brief: as §2

[21] = test system: blackgrass (Alopecurus myosuroides); assay: Test B postemergence; settings: 13 to 15 days
Method in brief: as §2

[22] = test system: morning glory (Ipomoea hederacea); assay: Test B postemergence; settings: 13 to 15 days
Method in brief: as §2

[23] = test system: wheat (Triticum aestivum); assay: Test B postemergence; settings: 13 to 15 days
Method in brief: as §2

[24] = test system: pigweed (Amaranthus retroflexus); assay: Test B postemergence; settings: 13 to 15 days
Method in brief: as §2

[25] = test system: cocklebur (Xanthium strumarium); assay: Test B postemergence; settings: 13 to 15 days
Method in brief: as §2

wild oat (Avena fatua) = assay: Test B postemergence; settings: 13 to 15 days
Method in brief: as §2

[26] = test system: Surinam grass (Brachiaria decumbens); assay: Test B postemergence; settings: 13 to 15 days
Method in brief: as §2

[27] = test system: velvetleaf (Abutilon theophrasti); assay: Test B postemergence; settings: 13 to 15 days
Method in brief: as §2

corn (Zea mays) [28] = assay: Test B postemergence; settings: 13 to 15 days
Method in brief: as §2

[29] = test system: giant foxtail (Setaria faberii); assay: Test B postemergence; settings: 13 to 15 days
Method in brief: as §2

[30] = test system: crabgrass (Digitaria sanguinalis); assay: Test B postemergence; settings: 13 to 15 days
Method in brief: as §2

[31] = Preemergence, Rate 500 g/ha, scale 0 to 100, 0 no effect, 100 complete control
[32] = preemergence, Rate 125 g/ha, scale of 0 to 100 where 0 is no effect and 100 is complete control, 13 to 15 days
[33] = Rate 125 g/ha, scale 0 (no effect) to 100 (complete control)
[34] = Rate 500 g/ha, scale 0 to 100, 0 is no effect, 100 is complete control

## CC(C)(C)c1ccn(C2CCN(c3ccc(F)c(Cl)c3)C2=O)n1 (stereo not drawn) [Compound 46]
[1]; Rate 250 g/ha
  Barnyardgrass plant response rating: 50
[1]; Rate 500 g/ha
  Barnyardgrass plant response rating: 60
[1]; Rate 62 g/ha
  Plant response rating, Barnyardgrass: 0
[1]; Rate 125 g/ha
  Plant response rating, Barnyardgrass: 20
[2]; Rate 250 g/ha
  Ducksalad plant response rating: 20
[2]; Rate 500 g/ha
  Ducksalad plant response rating: 50
[2]; Rate 62 g/ha
  Plant response rating, Ducksalad: 0
[2]; Rate 125 g/ha
  Plant response rating, Ducksalad: 0
Rice (Oryza saliva) [3]; Rate 250 g/ha
  Rice plant response rating: 0
Rice (Oryza saliva) [3]; Rate 500 g/ha
  Rice plant response rating: 40
Rice (Oryza saliva) [3]; Rate 62 g/ha
  Plant response rating, Rice: 0
Rice (Oryza saliva) [3]; Rate 125 g/ha
  Plant response rating, Rice: 0
[4]; Rate 250 g/ha
  Flatsedge plant response rating: 90
[4]; Rate 500 g/ha
  Flatsedge plant response rating: 100
[4]; Rate 62 g/ha
  Plant response rating, Flatsedge: 80
[4]; Rate 125 g/ha
  Plant response rating, Flatsedge: 90
[5]; [31]
  Plant response rating, Barnyardgrass: 80
[5]; [32]
  Plant response rating, Barnyardgrass: 0
[6]; [31]
  Plant response rating, Lambsquarters: 100
[6]; [32]
  Plant response rating, Lambsquarters: 100
[7]
  Plant response rating, Morningglory: 0
[8]; [31]
  Plant response rating, Pigweed: 100
[8]; [32]
  Plant response rating, Pigweed: 100
[9]; [31]
  Plant response rating, Cocklebur: 0
[9]; [32]
  Plant response rating, Cocklebur: 0
[10]; [31]
  Plant response rating, Surinam grass: 0
[10]; [32]
  Plant response rating, Surinam grass: 0
Rice (Oryza saliva) [11]; [31]
  Plant response rating, Rice: 0
Rice (Oryza saliva) [11]; [32]
  Plant response rating, Rice: 0
[12]; [31]
  Plant response rating, Velvetleaf: 0
[12]; [32]
  Plant response rating, Velvetleaf: 0
Corn (Zea mays) [13]; [31]
  Plant response rating, Corn: 0
Corn (Zea mays) [13]; [32]
  Plant response rating, Corn: 0
[14]; [31]
  Plant response rating, Foxtail, Giant: 0
[14]; [32]
  Plant response rating, Foxtail, Giant: 0
[15]; [31]
  Plant response rating, Crabgrass: 0
[15]; [32]
  Plant response rating, Crabgrass: 0
[16]
  Plant response rating, Barnyardgrass: 100
[17]
  Plant response rating, Ducksalad: 70
Rice (Oryza saliva) [18]
  Plant response rating, Rice: 90
[19]; [33]
  Plant response rating, Barnyardgrass: 0
[19]; [34]
  Plant response rating, Barnyardgrass: 0
[20]; [33]
  Plant response rating, Lambsquarters: 0
[20]; [34]
  Plant response rating, Lambsquarters: 70
[21]; [33]
  Plant response rating, Blackgrass: 0
[21]; [34]
  Plant response rating, Blackgrass: 0
[22]; [33]
  Plant response rating, Morningglory: 0
[22]; [34]
  Plant response rating, Morningglory: 0
[23]; [33]
  Plant response rating, Wheat: 0
[23]; [34]
  Plant response rating, Wheat: 0
[24]; [33]
  Plant response rating, Pigweed: 0
[24]; [34]
  Plant response rating, Pigweed: 0
[25]; [33]
  Plant response rating, Cocklebur: 0
[25]; [34]
  Plant response rating, Cocklebur: 0
Wild oat (Avena fatua); [33]
  Plant response rating, Wild Oat: 0
Wild oat (Avena fatua); [34]
  Plant response rating, Wild Oat: 0
[26]; [33]
  Plant response rating, Surinam grass: 0
[26]; [34]
  Plant response rating, Surinam grass: 0
[27]; [33]
  Plant response rating, Velvetleaf: 0
[27]; [34]
  Plant response rating, Velvetleaf: 0
Corn (Zea mays) [28]; [33]
  Plant response rating, Corn: 0
Corn (Zea mays) [28]; [34]
  Plant response rating, Corn: 0
[29]; [33]
  Plant response rating, Foxtail, Giant: 0
[29]; [34]
  Plant response rating, Foxtail, Giant: 0
[30]; [33]
  Plant response rating, Crabgrass: 0
[30]; [34]
  Plant response rating, Crabgrass: 0
